Test results published in patent US6890520B2, “Thermally stable ferulic acid derivatives” (Wakayama Prefecture, priority 2003, dated 2005).

How the values were obtained:
[1] = Thermal decomposition temperature by thermogravimetric-differential thermal analyzer TG/DTA 6200; assay type: physicochemical
Description: A thermal decomposition temperature of bis-4,4′-(2-ethoxycarbonyl-1-ethenyl)-2,2′-methoxyphenoxymethane prepared in Example 1 was determined by using a thermogravimetric-differential thermal simultaneous analyzer “TG/DTA 6200” (commercially available from Seiko Instruments Inc.).
A thermal decomposition temperature of bis-4,4′-(2-2-ethyl-1-hexyloxycarbonyl-1-ethenyl)-2,2′-methoxyphenoxymethane prepared in Example 9 was determined by using a thermogravimetric-differential thermal simultaneous analyzer “TG/DTA 6200” (commercially available from Seiko Instruments Inc.).
A thermal decomposition temperature of bis-4,4′-(2-dodecyloxycarbonyl-1-ethenyl)-2,2′-methoxyphenoxymethane prepared in Example 10 was determined by using a thermogravimetric-differential thermal simultaneous analyzer “TG/DTA 6200” (commercially available from Seiko Instruments Inc.).

[2] = related art statement; cited from earlier work

Row | Structure (SMILES) | thermal decomposition point [1] [°C] | decomposition temperature [2] [°C]
1 | CCOC(=O)C=Cc1ccc(OCOc2ccc(C=CC(=O)OCC)cc2OC)c(OC)c1 [Example 1, Bis-4,4′-(2-ethoxycarbonyl-1-ethenyl)-2,2′-methoxyphenoxymethane] | 359 | 
2 | CCCCC(CC)COC(=O)C=Cc1ccc(OCOc2ccc(C=CC(=O)OCC(CC)CCCC)cc2OC)c(OC)c1 (stereo not shown) [Example 9, Bis-4,4′-(2-2-ethyl-1-hexyloxycarbonyl-1-ethenyl)-2,2′-methoxyphenoxymethane] | 355 | 
3 | CCCCCCCCCCCCOC(=O)C=Cc1ccc(OCOc2ccc(C=CC(=O)OCCCCCCCCCCCC)cc2OC)c(OC)c1 [Example 10, Bis-4,4′-(2-dodecyloxycarbonyl-1-ethenyl)-2,2′-methoxyphenoxymethane] | 318 | 
4 | COc1cc(/C=C/C(=O)O)ccc1O [ferulic acid] |  | 176
